What was measured:
[1] = system: HepG2; assay: drug sensitivity score (DSS) for viability; higher = more toxic; extreme values may be limits of the assay; details: 72 h
[2] = system: U2OS; assay: as above; details: 72 h
[3] = system: Calu-3; assay: as above; details: 72 h
[4] = system: Vero E6; assay: as above; details: 72 h
[5] = system: Caco-2; assay: as above; details: 72 h
[6] = system: A549-ACE2 infected with SARS-CoV-2; assay: cell count relative to DMSO; higher = less toxic; details: 24 h
[7] = system: A549-ACE2 infected with SARS-CoV-2; assay: SARS-CoV-2 infection rate relative to DMSO; higher = more infection; details: 24 h
[8] = system: A549-ACE2 infected with SARS-CoV-2; assay: morphology score (similarity to uninfected cells); higher = more like uninfected cells; details: 24 h
[9] = system: A549-ACE2; assay: drug-induced phospholipidosis relative to tamoxifen; higher = more phospholipidosis
[10] = system: HepG2; assay: cell viability relative to DMSO; higher = less toxic; details: 72 h
[11] = system: U2OS; assay: as above; details: 72 h
[12] = system: Calu-3; assay: as above; details: 72 h
[13] = system: Vero E6; assay: as above; details: 72 h
[14] = system: Caco-2; assay: as above; details: 72 h
[15] = system: HepG2; assay: relative viability EC50 (midpoint between 100% and the lowest measured viability); higher = less toxic; details: 72 h
[16] = system: U2OS; assay: as above; details: 72 h
[17] = system: Calu-3; assay: as above; details: 72 h
[18] = system: Vero E6; assay: as above; details: 72 h
[19] = system: Caco-2; assay: as above; details: 72 h
[20] = system: A549-ACE2; assay: phospholipidosis EC50; higher = less potent phospholipidosis inducer

CCCCCCCCCCC(O)C1C=CC2C(=O)N(c3ccccc3)C(=O)C2N1Nc1ccc([N+](=O)[O-])cc1 (centres undefined) [A12B4C3]
Details	drug sensitivity score	relative viability EC50 [µM]
[1]	0	–
[2]	0	–
[3]	0	–
[4]	0	–
[5]	0.2	–
[15]	–	> 10
[16]	–	> 10
[17]	–	> 10
[18]	–	> 10
[19]	–	> 10

Details	SARS-CoV-2 infection rate, [7] [%]	cell count, [6] [%]	cell viability, [10] [%]	cell viability, [11] [%]	cell viability, [12] [%]	cell viability, [13] [%]	cell viability, [14] [%]	morphology score, [8]
1 nM	–	–	96.9	97.8	98.9	93.1	96.6	–
10 nM	–	–	91.2	104	104	99.9	99	–
100 nM	–	–	99.2	95.5	98.4	98.3	85.9	–
0.3 µM	92	107	–	–	–	–	–	0.31
1000 nM	–	–	102	99	96.2	106	90	–
3 µM	95	105	–	–	–	–	–	0.4
10 µM	68	110	–	–	–	–	–	0.65
10000 nM	–	–	97.7	89	95.6	102	92	–
30 µM	37	104	–	–	–	–	–	0.6

drug-induced phospholipidosis [%], [9]
Details	0.3 µM	0.833333 µM	3.33333 µM	6.66667 µM	10 µM	30 µM
24 h	-2.18	-1.14	-1.42	-1.07	-2.23	12.3
48 h	0.96	-1.02	1.8	1.83	2.36	7.09
72 h	1.78	0.183	1.98	2.85	2.51	10.2

C=CC(=O)Nc1cccc(C)c1Nc1ncc2cc(-c3c(Cl)c(OC)cc(OC)c3Cl)ccc2n1 [BLU9931]
Details	drug sensitivity score	relative viability EC50 [µM]
[1]	5.2	–
[2]	2.7	–
[3]	2.3	–
[4]	0.4	–
[5]	0.9	–
[15]	–	2.02
[16]	–	3.55
[18]	–	> 10
[19]	–	> 10

Details	SARS-CoV-2 infection rate, [7] [%]	cell count, [6] [%]	cell viability, [10] [%]	cell viability, [11] [%]	cell viability, [12] [%]	cell viability, [13] [%]	cell viability, [14] [%]	morphology score, [8]
1 nM	–	–	102	101	99.4	106	103	–
10 nM	–	–	108	104	103	98.8	105	–
100 nM	–	–	96.3	97.4	97.5	99.8	97	–
0.3 µM	102	106	–	–	–	–	–	0.15
1000 nM	–	–	90.5	104	101	97.6	96.8	–
3 µM	96	99	–	–	–	–	–	0.3
10 µM	77	75	–	–	–	–	–	0.26
10000 nM	–	–	34.2	43.8	53.7	85.8	81	–
30 µM	65	67	–	–	–	–	–	0.43

drug-induced phospholipidosis [%], [9]
Details	0.3 µM	0.833333 µM	3.33333 µM	6.66667 µM	10 µM	30 µM
24 h	1.97	0.46	11	14.3	20.1	73.6
48 h	2.96	1.66	13.1	–	–	–
72 h	1.37	-1.51	4.02	–	–	–

O=C1/C(=C/c2ccccc2)C[C@@]2(O)[C@H]3Cc4ccc(O)c5c4[C@@]2(CCN3CC2CC2)[C@H]1O5 [BNTX]
Details	drug sensitivity score	relative viability EC50 [µM]
[1]	8.1	–
[2]	5.6	–
[3]	4.2	–
[4]	6.1	–
[5]	4.9	–
[15]	–	1.94
[16]	–	2.97
[17]	–	3.66
[18]	–	2.88
[19]	–	2.43

Details	SARS-CoV-2 infection rate, [7] [%]	cell count, [6] [%]	cell viability, [10] [%]	cell viability, [11] [%]	cell viability, [12] [%]	cell viability, [13] [%]	cell viability, [14] [%]	morphology score, [8]
1 nM	–	–	98.3	99.5	99.5	105	100	–
10 nM	–	–	99.3	102	95.6	102	101	–
0.1 µM	94	101	–	–	–	–	–	0.09
100 nM	–	–	110	95.4	102	103	91.2	–
0.3 µM	93	106	–	–	–	–	–	0.34
1 µM	59	108	–	–	–	–	–	0.64
1000 nM	–	–	84.2	97.5	109	96.2	93.8	–
3 µM	11	89	–	–	–	–	–	0.68
10000 nM	–	–	0.5	5.7	13.1	0.4	30	–

drug-induced phospholipidosis [%], [9]
Details	0.3 µM	0.833333 µM	3.33333 µM	6.66667 µM
24 h	0.73	2.81	24.9	20.5
48 h	0.39	0.51	26	–
72 h	2.04	0.605	–	–

CCN1CCN(Cc2ccc(C(=O)Nc3ccc(C)c(Oc4ccc5c(c4)CC(=O)N5)c3)cc2C(F)(F)F)CC1 [DDR1-IN-1]
Details	drug sensitivity score	relative viability EC50 [µM]
[1]	2.8	–
[2]	1.3	–
[3]	2.3	–
[4]	1.1	–
[5]	3.9	–
[15]	–	3.52
[16]	–	> 10

Details	SARS-CoV-2 infection rate [%]	cell count [%]	cell viability [%]	morphology score	phospholipidosis EC50 [µM]
[6], 0.1 µM	–	102	–	–	–
[6], 0.3 µM	–	104	–	–	–
[6], 1 µM	–	114	–	–	–
[6], 3 µM	–	121	–	–	–
[7], 0.1 µM	98	–	–	–	–
[7], 0.3 µM	96	–	–	–	–
[7], 1 µM	61	–	–	–	–
[7], 3 µM	26	–	–	–	–
[8], 0.1 µM	–	–	–	-0.13	–
[8], 0.3 µM	–	–	–	-0.1	–
[8], 1 µM	–	–	–	0.26	–
[8], 3 µM	–	–	–	0.78	–
[10], 1 nM	–	–	96.5	–	–
[10], 10 nM	–	–	91.4	–	–
[10], 100 nM	–	–	90.3	–	–
[10], 1000 nM	–	–	104	–	–
[10], 10000 nM	–	–	42.5	–	–
[11], 1 nM	–	–	100	–	–
[11], 10 nM	–	–	98.2	–	–
[11], 100 nM	–	–	99.6	–	–
[11], 1000 nM	–	–	94.5	–	–
[11], 10000 nM	–	–	79.8	–	–
[12], 1 nM	–	–	97.2	–	–
[12], 10 nM	–	–	101	–	–
[12], 100 nM	–	–	99.2	–	–
[12], 1000 nM	–	–	104	–	–
[12], 10000 nM	–	–	50.3	–	–
[13], 1 nM	–	–	97.4	–	–
[13], 10 nM	–	–	99.5	–	–
[13], 100 nM	–	–	100	–	–
[13], 1000 nM	–	–	100	–	–
[13], 10000 nM	–	–	72.9	–	–
[14], 1 nM	–	–	102	–	–
[14], 10 nM	–	–	94.8	–	–
[14], 100 nM	–	–	101	–	–
[14], 1000 nM	–	–	88.1	–	–
[14], 10000 nM	–	–	58	–	–
[20], 24 h	–	–	–	–	1.39
[20], 48 h	–	–	–	–	3.2
[20], 72 h	–	–	–	–	4.19

drug-induced phospholipidosis [%], [9]
Details	0.3 µM	0.833333 µM	3.33333 µM	6.66667 µM	10 µM	30 µM
24 h	10.6	33.4	86.8	106	121	89.6
48 h	6.52	20.9	67.3	89.5	109	118
72 h	6.39	17.7	60.8	89.3	107	126
